Consider 3 compounds from patent US9167818B2, “Active compounds combinations comprising prothioconazole and fluxapyroxad” (BAYER CROPSCIENCE AG, priority 2010, dated 2015).

The assay deals with Alternaria solani. Put plainly: Alternaria test (tomatoes) / preventive. It is filed as in vivo, Alternaria solani on tomatoes. Conditions: single active, preventive spray, evaluated 3 days after inoculation. An excerpt: The expected activity for a given combination of two active compounds can be calculated as follows (cf. Colby, S. R., “Calculating Synergistic and Antagonistic Responses of Herbicide Combinations”, Weeds 1967, 15, 20-22): If • X is the efficacy when active compound A is applied at an application rate of m ppm (or g/ha), • Y is the efficacy when active compound B is applied at an application rate of n ppm (or g/ha), • E is the efficacy when the active compounds A and B are applied at application rates of m and n ppm (or g/ha), respectively, and then
The degree of efficacy, expressed in % is denoted. 0% means an efficacy which corresponds to that of the control while an efficacy of 100% means that no disease is observed.
If the actual fungicidal activity exceeds the calculated value, then the activity of the combination is superadditive, i.e. a synergistic effect exists. In this case, the efficacy which was actually observed must be greater than the value for the expected efficacy (E) calculated from the abovementioned formula.
To produce a suitable preparation of active compound, 1 part by weight of active compound is mixed with the stated amounts of solvent and emulsifier, and the concentrate is diluted with water to the desired concentration. To test for preventive activity, young plants are sprayed with the preparation of active compound at the stated rate of application. After the spray coating has dried on, the plants are inoculated with an aqueous spore suspension of Alternaria solani. The plants are then placed in an incubation cabinet at approximately 20° C. and a relative atmospheric humidity of 100%. The test is evaluated 3 days after the inoculation. 0% means an efficacy which corresponds to that of the untreated control while an efficacy of 100% means that no disease is observed.

With `Fc1ccc([C@]2(Cn3cncn3)O[C@H]2c2ccccc2Cl)cc1` (racemic) [Epoxiconazole, epoxiconazole], the “Efficacy in % found” value is, setting by setting: (application rate 0.5 ppm a.i.) 41%; (application rate 1 ppm a.i.) 53%; (application rate 2 ppm a.i.) 59%.

`OC(Cc1ccccc1Cl)(Cn1[nH]cnc1=S)C1(Cl)CC1` (stereo not drawn) [(A) Prothioconazole, 2-[2-(1-chlorocyclopropyl)-3-(2-chlorophenyl)-2-hydroxypropyl]-1,2-dihydro-3H-1,2,4-triazole-3-thione]: the “Efficacy in % found” value reads like this: (application rate 0.5 ppm a.i.) 0%; (application rate 1 ppm a.i.) 18%; (application rate 2 ppm a.i.) 41%.

Turning to `Cn1cc(C(=O)Nc2ccccc2-c2cc(F)c(F)c(F)c2)c(C(F)F)n1` [(B) Fluxapyroxad, 3-(difluoromethyl)-1-methyl-N-(3′,4′,5′-trifluorobiphenyl-2-yl)pyrazole-4-carboxamide], the “Efficacy in % found” value reads like this: (application rate 0.25 ppm a.i.) 62%; (application rate 0.5 ppm a.i.) 65%; (application rate 1 ppm a.i.) 87%.
